{"source": "patent US20220265817A1", "about": "“THERAPEUTIC COMPOSITIONS AND METHODS FOR TREATING HEPATITIS B” (priority 2017, published 2022)", "key": {"[1]": {"test_system": "D type HBV in primary human hepatocytes", "test": "microbe, parasite or virus in culture", "format": "cell-based", "conditions": "for EC50: determined in an earlier separate experiment", "protocol": "The mouse liver perfusion was applied to isolate PHHs. The isolated hepatocytes were further purified by Percoll. The cells were resuspended with culture media and seeded into the 96-well plates (6×10^4 cell/well) or 48-well plates (1.2×10^5 cell/well). The PHHs were infected with a D type HBV one day post seeding (day 1).\nOn day 2, the test compounds were diluted and added into the cell culture plates. The culture media containing the compounds were refreshed every other day. The cell culture supernatants were collected on day 8 for the HBV DNA and antigen determinations.\nThe compounds were tested at 7 concentrations, 3-fold dilution, in triplicate.\nTwo compounds were tested at 5×5 matrix, in triplicate plates.\nDNA in the culture supernatants harvested on days 8 were isolated with QIAamp 96 DNA Blood Kit (Qiagen-51161). For each sample, 100 μl of the culture supernatants was used to extract DNA. The DNA was eluted with 100 μl, 150 μl or 180 μl of AE. HBV DNA in the culture supernatants was quantified by qPCR. The combination effect was analyzed by the MacSynergy software. The primers are described below."}, "[2]": {"test_system": "HBV rcDNA in AML12-HBV10 cells", "test": "AML12-HBV10 cell culture system, rcDNA quantitation using bDNA assay, MacSynergy II", "format": "cell-based, mouse hepatocyte cell line", "conditions": "Hepatitis B virus, AML12HBV10, in Mus musculus, 48 h, read-out: Inhibitor EC50", "protocol": "In vitro combination studies were conducted using the method of Prichard and Shipman (Prichard M N, and Shipman C Jr., Antiviral Research, 1990, 14 (4-5), 181-205; and Prichard M N, et. al., MacSynergy II). The AML12-HBV10 cell line was developed as described in Campagna et al. (Campagna et. al., J. Virology, 2013, 87(12), 6931-6942). It is a mouse hepatocyte cell line stably transfected with the HBV genome, and which can express HBV pregenomic RNA and support HBV rcDNA (relaxed circular DNA) synthesis in a tetracycline-regulated manner. AML12-HBV10 cells were plated in 96 well tissue-culture treated microtiter plates in DMEM/F12 medium supplemented with 10% fetal bovine serum +1% penicillin-streptomycin without tetracycline and incubated in a humidified incubator at 37° C. and 5% CO2 overnight. […] The two inhibitors were tested both singly as well as in combinations in a checkerboard fashion such that each concentration of inhibitor A was combined with each concentration of inhibitor B to determine their combination effects on inhibition of rcDNA production. Following a 48 hour-incubation, the level of rcDNA present in the inhibitor-treated wells was measured using a bDNA assay (Affymetrix) with HBV specific custom probe set and manufacturer's instructions. […] Concurrently, the effect of inhibitor combinations on cell viability was assessed using replicate plates that were used to determine the ATP content as a measure of cell viability using the cell-titer glo reagent (Promega) as per manufacturer's instructions."}, "hepatitis B virus (HBV)": {"test_system": "hepatitis B virus (HBV)", "test": "Humanized liver chimeric mouse model of chronic HBV infection, serum HBV DNA by quantitative PCR", "format": "in vivo", "conditions": "mean", "protocol": "This work was conducted in a well-established humanized liver chimeric mouse model of chronic hepatitis B virus (HBV) infection (Tsuge et al., Hepatology, 42(5), 1046-54 (2005)). A persistent level of HBV infection was established in the animals prior to the treatment phase which started at Day 0.\nThe anti-HBV effects were assessed based on serum HBsAg levels using the GS HBsAg EIA 3.0 enzyme linked immunosorbent assay kit from Bio-Rad Laboratories as per manufacturer instructions; and serum HBV DNA levels measured from total extracted DNA using a quantitative PCR assay (primer/probe sequences from Tanaka et al., Journal of Medical Virology, 72, 223-229 (2004))."}}, "note": "Where “and” joins values, the source holds several entries; their conditions need not be identical. Identical values can stand only once. Like-named read-outs stand apart in the source and are kept apart here.", "data": [{"smiles": "O=C(Nc1ccc(F)c(F)c1)c1cc(S(=O)(=O)NC2CCCC2)ccc1F", "note": "[Compound 22]", "values": [{"measurement": "inhibition at 0.061728 µM", "setting": "[1]; Hepatitis B virus, Hepatocyte, TAF 0.00 nM, COMPOUND 22 61.728 nM", "result": 2.38, "unit": "%"}, {"measurement": "inhibition at 0.18519 µM", "setting": "[1]; Hepatitis B virus, Hepatocyte, TAF 0.00 nM, COMPOUND 22 185.19 nM, read-out: AVERAGE % INHIBITION", "result": -3.33, "unit": "%"}, {"measurement": "inhibition at 0.55556 µM", "setting": "[1]; Hepatitis B virus, Hepatocyte, TAF 0.00 nM, COMPOUND 22 555.56 nM, read-out: AVERAGE % INHIBITION", "result": 8.01, "unit": "%"}, {"measurement": "inhibition at 1.6667 µM", "setting": "[1]; Hepatitis B virus, Hepatocyte, TAF 0.00 nM, COMPOUND 22 1666.7 nM", "result": 28, "unit": "%"}, {"measurement": "inhibition at 5 µM", "setting": "[1]; Hepatitis B virus, Hepatocyte, TAF 0.00 nM, COMPOUND 22 5000 nM, read-out: AVERAGE % INHIBITION", "result": 54.7, "unit": "%"}, {"measurement": "inhibition at 0.06173 µM", "setting": "[1]; Hepatitis B virus, Hepatocyte, read-out: AVERAGE % […] DNA, COMPOUND 22 61.73 nM alone", "result": -11.8, "unit": "%"}, {"measurement": "inhibition at 0.18519 µM", "setting": "[1]; Hepatitis B virus, Hepatocyte, read-out: AVERAGE % […] DNA, COMPOUND 22 185.19 nM alone, read-out: AVERAGE % INHIBITION HBV DNA", "result": -9.12, "unit": "%"}, {"measurement": "inhibition at 0.55556 µM", "setting": "[1]; Hepatitis B virus, Hepatocyte, read-out: AVERAGE % […] DNA, COMPOUND 22 555.56 nM alone, read-out: AVERAGE % INHIBITION HBV DNA", "result": -12.7, "unit": "%"}, {"measurement": "inhibition at 1.66667 µM", "setting": "[1]; Hepatitis B virus, Hepatocyte, read-out: AVERAGE % […] DNA, COMPOUND 22 1666.67 nM alone", "result": 17.9, "unit": "%"}, {"measurement": "inhibition at 5 µM", "setting": "[1]; Hepatitis B virus, Hepatocyte, read-out: AVERAGE % […] DNA, COMPOUND 22 5000.00 nM alone, read-out: AVERAGE % INHIBITION HBV DNA", "result": 63.1, "unit": "%"}, {"measurement": "EC50", "setting": "[1]; Hepatitis B virus, Hepatocyte, HBV DNA, read-out: Inhibitor EC50", "result": 1.02, "unit": "µM"}, {"measurement": "EC50", "setting": "[1]; Hepatitis B virus, Hepatocyte, PHH, read-out: Inhibitor B EC50 HBV DNA", "result": 1.02, "unit": "µM"}]}, {"smiles": "C=C1[C@H](CO)[C@@H](O)C[C@@H]1n1cnc2c(=O)[nH]c(N)nc21", "note": "[Entecavir]", "values": [{"measurement": "EC50", "setting": "[2]", "result": 0.012, "unit": "µM"}, {"measurement": "Serum HBV DNA", "setting": "hepatitis B virus (HBV); Day 0 (start of treatment), SEM in the line below", "result": "1.48E+08", "unit": "Copies/mL"}, {"measurement": "Serum HBV DNA", "setting": "hepatitis B virus (HBV); Day 7, Compound 3 oral 100 mg/kg twice daily, SIRNA-NP iv 3 mg/kg every 2 weeks, ETV oral 1.2 μg/kg daily, pegIFN α-2a sc 30 μg/kg twice a week", "result": "2.35E+07", "unit": "Copies/mL"}, {"measurement": "Serum HBV DNA", "setting": "hepatitis B virus (HBV); Day 14, same dosages", "result": "1.38E+07", "unit": "Copies/mL"}, {"measurement": "Serum HBV DNA", "setting": "hepatitis B virus (HBV); Day 21, same dosages", "result": "1.35E+07", "unit": "Copies/mL"}, {"measurement": "Serum HBV DNA", "setting": "hepatitis B virus (HBV); Day 28, same dosages", "result": "9.33E+06", "unit": "Copies/mL"}]}, {"smiles": "CC(C)OC(=O)OCOP(=O)(CO[C@H](C)Cn1cnc2c(N)ncnc21)OCOC(=O)OC(C)C.O=C(O)/C=C/C(=O)O", "note": "[TDF, tenofovir disoproxil fumarate, reference compound]", "values": [{"measurement": "AVERAGE % INHIBITION HBV DNA", "setting": "[1]; 3 replicates, Compound 24 0.00 nM, TDF nM: 10.00, 3.33, 1.11, 0.37, 0.12", "result": "−6.24% and −1.16% and −15.4% and 3.15%"}]}]}
